Results published in US20220305121A1, “N-ARYL SULFONAMIDE DERIVATIVES AS VACCINE ADJUVANT” (The Regents of the University of California, priority 2019, published 2022).
“Also recorded” adds a separate entry of the source.

Tests used:
Type in all cases: cell-based
THP-1 cells = assay: Cell viability assay (MTT); settings: compound 5 μM, 18 hours incubation; normalized to DMSO as 100%; mean
Method: THP-1 cells were plated in 96-well plates (10^5 cells/well) in 100 μL RPMI supplemented with 10% FBS, 100 U/mL penicillin and 100 μg/ml streptomycin. Compounds were dissolved in DMSO at 1 mM stock solution and were further diluted to 10 μM in the assay medium. 100 μL of this solution was added to the cells to obtain a final compound concentration of 5 μM ([…]). After 18 hours incubation, a solution of MTT in assay media (0.5 mg/mL) was added to each well and further incubated for 4 to 6 hours, followed by addition of cell lysis buffer (15% w/v SDS and 0.12% v/v 12N HCl aqueous solution), incubated overnight, and then absorbance measured at 570 nm using 650 nm as reference using Tecan Infinite M200 plate reader.
Cell Viability Assay. THP-1 cells were plated in 96-well plates (10^5 cells/well) in 100 μL RPMI supplemented with 10% FBS, 100 U/mL penicillin, and 100 μg/mL streptomycin. Compounds were dissolved in DMSO at 1 mM stock solution and were further diluted to 10 μM in the assay medium. 100 μL of this solution was added to the cells to obtain a final compound concentration of 5 μM ([…]). After 18 h incubation, a solution of MTT in assay media (0.5 mg/mL) was added to each well and further incubated for 4-6 hours, followed by addition of cell lysis buffer (15% w/v SDS and 0.12% v/v 12 N HCl aqueous solution), incubation overnight, and then absorbance was measured at 570 nm using 650 nm as reference using Tecan Infinite M200 plate reader.

NF-κB = assay: Measurement of NF-κB activation using THP1-Blue NF-κB cells (SEAP reporter, LPS as primary stimulus); settings: compound 5 μM + LPS, 20 hour incubation; two point normalized: compound 1 + LPS = 200%, LPS = 100%; mean
Method: (§1) THP1-Blue™ NF-κB cells were plated in 96-well plates at 10^5 cells/well in 100 μl RPMI supplemented with 10% fetal bovine serum (FBS, Omega Scientific, Inc., Tarzana, Calif.), 100 U/mL penicillin, 100 μg/ml streptomycin (Thermo Fisher Scientific) and Normocin (Invivogen). LPS was prepared in assay medium at a concentration of 20 μg/mL. Tested compounds were dissolved in DMSO at 1 mM as a stock solution and were further diluted in the LPS solution to a final concentration of 10 μM. 100 μL of this solution was then transferred to the plated cells to obtain a final concentration of LPS at 10 μg/mL and compound at 5 μM ([…]). The culture supernatants were harvested after a 20 hour incubation period, SEAP activity in the culture supernatants was determined by a colorimetric assay using QuantiBlue (Invivogen). Plate absorbance was read at 630 nm using a Tecan Infinite M200 plate reader (Männedorf, Switzerland). The SEAP concentration was directly proportional to NF-κB activity, which was 2-point normalized to yield activity of compound 1+LPS as 200% and activity for LPS as 100%.
(§2) Measurement of NF-κB Activation Using THP1-Blue NF-κB Cells. THP1-Blue NF-κB cells were plated in 96-well plates at 10^5 cells/well in 100 μL of RPMI supplemented with 10% fetal bovine serum (FBS, Omega Scientific, Inc., Tarzana, Calif.), 100 U/mL penicillin, 100 μg/mL streptomycin (Thermo Fisher Scientific), and Normocin (Invivogen). LPS was prepared in assay medium at a concentration of 20 μg/mL. Tested compounds were dissolved in DMSO at 1 mM as a stock solution and were further diluted in the LPS solution to a final concentration of 10 μM. 100 μL of this solution was then transferred to the plated cells to obtain a final concentration of LPS at 10 μg/mL and compound at 5 μM ([…]). The culture supernatants were harvested after a 20 hours incubation period. SEAP activity in the culture supernatants was determined by a colorimetric assay using QuantiBlue (Invivogen). Plate absorbance was read at 630 nm using a Tecan Infinite M200 plate reader (Mannedorf, Switzerland). The SEAP concentration was directly proportional to NF-κB activity, which was two-point normalized to yield activity of compound 1+LPS as 200% and activity for LPS as 100%.

ISRE = assay: Measurement of ISRE activity in ISRE-bla THP-1 cells (FRET, IFN-α as primary stimulus); settings: for activity at 5 µM: Homo sapiens, THP-1, read-out: ISRE % Activation; for ISRE activity (in words): with IFN-α
Method: (§3) ISRE-bla THP-1 cells were plated in 96-well plates at 5×10^4 cells/well in 50 μl RPMI supplemented with 10% dialyzed FBS (Atlanta Biologicals, Inc., GA), 0.1 mM nonessential amino acids, 1 mM sodium pyruvate, 100 U/mL penicillin and 100 μg/ml streptomycin. Type I IFN-α (R&D Systems, #11200-2) solution was prepared in assay medium at a concentration of 200 U/mL Tested compounds were dissolved in DMSO at 1 mM and were further diluted in the IFN-α solution to a final concentration of 10 μM. 50 μL of this solution was then transferred to the plated cells to obtain a final concentration of IFN-α at 100 U/mL and compound at 5 μM ([…]), The cells were incubated for 16 hours, after which 20 μL of 6×LiveBLAzer™ FRET B/G Substrate (CCF4-AM) mixture (prepared according to the manufacturer's instructions) was added to each well, Plates were incubated at room temperature in the dark for 3 hours. Fluorescence was measured on a Tecan Infinite M200 plate reader at an excitation wavelength of 405 nm, and emission wavelengths of 465 nm and 535 nm. Background values (cell free wells at the same fluorescence wavelength) were subtracted from the raw fluorescence intensity values and the emission ratios were calculated as the ratio of background subtracted fluorescence intensities at 465 nm to background subtracted fluorescence intensities at 535 nm. The ISRE activity values for these compounds were 2-point normalized to yield activity of compound 1+IFN-α as 200% and activity for IFN-α as 100%.
Measurement of ISRE Activity in ISRE-bla THP-1 Cells. ISREbla THP-1 cells were plated in 96-well plates at 5×10^4 cells/well in 50 μL of RPMI supplemented with 10% dialyzed FBS (Atlanta Biologicals, Inc., GA), 0.1 mM nonessential amino acids, 1 mM sodium pyruvate, 100 U/mL penicillin, and 100 μg/mL streptomycin. Type I IFN-α (R&D Systems, no. 11200-2) solution was prepared in assay medium at a concentration of 200 U/mL. Tested compounds were dissolved in DMSO at 1 mM and were further diluted in the IFN-α solution to a final concentration of 10 μM. 50 μL of this solution was then transferred to the plated cells to obtain a final concentration of IFN-α at 100 U/mL and compound at 5 μM ([…]). The cells were incubated for 16 hours, after which 20 μL of 6×LiveBLAzer FRET B/G substrate (CCF4-AM) mixture (prepared according to the manufacturer's instructions) was added to each well. Plates were incubated at room temperature in the dark for 3 hours. Fluorescence was measured on a Tecan Infinite M200 plate reader at an excitation wavelength of 405 nm and emission wavelengths of 465 and 535 nm. Background values (cell free wells at the same fluorescence wavelength) were subtracted from the raw fluorescence intensity values and the emission ratios were calculated as the ratio of background subtracted fluorescence intensities at 465 nm to background subtracted fluorescence intensities at 535 nm. The ISRE activity values for these compounds were two-point normalized to yield activity of compound 1+IFN-α as 200% and activity for IFN-α as 100%.

NF-κB and ISRE = NF-κB and ISRE reporter assays (primary screens), statements in words for both assays; settings: with LPS or IFN-α as primary stimulus; compared to compound 1
Method: as §1, §3, §2
Measurement of ISRE Activity in ISRE-bla THP-1 Cells. […]

[1] = compound 5 μM + IFN-α 100 U/mL, 16 hours, two point normalized: compound 1 + IFN-α = 200%, IFN-α = 100%, mean

Row | SMILES | MTT % Viability (THP-1 cells) | activity at 5 µM (NF-κB) | activity at 5 µM (ISRE; [1]) | activity in NF-κB and ISRE assays (in words) (NF-κB and ISRE) | ISRE activity (in words) (ISRE) | NF-κB % Activation (NF-κB) | ISRE % Activation (ISRE; [1])
1 | CCOc1ccc(S(=O)(=O)Nc2ccc(Cl)c(OC)c2)cc1 [Compound 4, N-(4-chloro-3-methoxyphenyl)-4-ethoxybenzenesulfonamide] | 83.7% | 126% | 99% | complete loss of activity; also recorded: significant loss of activity | – | – | –
2 | CCOc1ccc(S(=O)(=O)Nc2ccc(Cl)cc2OC)cc1 [Compound 5, N-(4-chloro-2-methoxyphenyl)-4-ethoxybenzenesulfonamide] | 78.3% | 141% | 109% | complete loss of activity; also recorded: significant loss of activity | – | – | –
3 | CCOc1ccc(S(=O)(=O)Nc2cc(OC)ccc2OC)cc1 [Compound 6, N-(2,5-dimethoxyphenyl)-4-ethoxybenzenesulfonamide] | 73.1% | 116% | 96% | retained activity | – | – | –
4 | CCOc1ccc(S(=O)(=O)Nc2cc(OC)c(Br)cc2OC)cc1 [Compound 7, N-(4-bromo-2,5-dimethoxyphenyl)-4-ethoxybenzenesulfonamide] | 68.8% | 176% | 235% | retained activity | slightly skewed ISRE activity | – | –
5 | CCOc1ccc(S(=O)(=O)Nc2cc(OC)c(Cl)c(OC)c2)cc1 [Compound 8, N-(4-chloro-3,5-dimethoxyphenyl)-4-ethoxybenzenesulfonamide] | 71.4% | 179% | 218% | complete loss of activity | slightly skewed ISRE activity | – | –
6 | COc1cc(NS(=O)(=O)c2ccc(O)cc2)c(OC)cc1Cl [Compound 11, N-(4-chloro-2,5-dimethoxyphenyl)-4-hydroxybenzenesulfonamide] | 85.2% | 98% | 104% | not tolerated | – | – | –
7 | COc1cc(NS(=O)(=O)c2ccc(C(=O)O)cc2)c(OC)cc1Cl [Compound 28, 4-(N-(4-chloro-2,5-dimethoxyphenyl)sulfamoyl)benzoic acid] | 98.2% | – | – | lost activity | – | – | –
8 | CCOc1ccc(NS(=O)(=O)c2cc(OC)c(Cl)cc2OC)cc1 [Compound 31, 4-Chloro-N-(4-ethoxyphenyl)-2,5-dimethoxybenzenesulfonamide] | – | – | – | inactivity | – | – | –
9 | C#CCCN(c1cc(OC)c(Cl)cc1OC)S(=O)(=O)c1ccc(OCC)cc1 [Compound 43, N-(but-3-yn-1-yl)-N-(4-chloro-2,5-dimethoxyphenyl)-4-ethoxybenzenesulfonamide] | 70.1% | 206% | 201% | – | – | – | –
10 | C#CCCCN(c1cc(OC)c(Cl)cc1OC)S(=O)(=O)c1ccc(OCC)cc1 [Compound 44, N-(4-chloro-2,5-dimethoxyphenyl)-4-ethoxy-N-(pent-4-yn-1-yl) benzenesulfonamide] | 70.7% | – | – | – | – | 182% | 184%
11 | CCOC(=O)CCCN(c1cc(OC)c(Cl)cc1OC)S(=O)(=O)c1ccc(OCC)cc1 [Compound 50, Ethyl 4-((N-(4-chloro-2,5-dimethoxyphenyl)-4-ethoxyphenyl)sulfonamido)butanoate] | 80.1% | 199% | 199% | – | – | – | –
12 | CCOc1ccc(S(=O)(=O)N(CCCC(=O)O)c2cc(OC)c(Cl)cc2OC)cc1 [Compound 53, 4-((N-(4-chloro-2,5-dimethoxyphenyl)-4-ethoxyphenyl)sulfonamido)butanoic acid] | 73.4% | 230% | 151% | – | – | – | –
13 | CCOc1ccc(S(=O)(=O)Nc2cc(OC)c(N=[N+]=[N-])cc2OC)cc1 [Compound 59, N-(4-azido-2,5-dimethoxyphenyl)-4-ethoxybenzenesulfonamide] | 76.6% | – | – | potent | – | – | –
14 | COc1ccc(S(=O)(=O)Nc2cc(OC)c(Cl)cc2OC)cc1N [Compound 60, 3-Amino-N-(4-chloro-2,5-dimethoxyphenyl)-4-methoxybenzenesulfonamide] | 77.3% | – | – | resurgence of activity | – | – | –
15 | COc1cc(NS(=O)(=O)c2ccc(OC)c(N=[N+]=[N-])c2)c(OC)cc1Cl [Compound 61, 3-Azido-N-(4-chloro-2,5-dimethoxyphenyl)-4-methoxybenzenesulfonamide] | 87.2% | – | – | inactive | – | – | –
